Laboratory results taken from PubChem BioAssay AID1845202 (Molecular Pharmacology Branch, DTP, NCI, 2023).
Several values for one entry are separate records, joined by “and”; a condition that tells them apart may be missing. Equal entries are not always repeated.

System: DMS 114 tumor spheroids, viability % test/control
Assay: Anticancer human tumor DMS 114 cell line growth inhibition;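 further: spheroids exposed to compounds for 7 days before read-out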;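 on viability, T/C: luminescence used as a proxy for viable cells; 100% = DMSO vehicle control viability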
Details: spheroids with HUVEC and MSC; for viability, T/C: stronger effect = lower value
Text: Multicellular complex tumor spheroid response to DNA repair inhibitors in combination with DNA-damaging drugs
This study explores the anticancer activities of DNA-damaging drugs and inhibitors of DNA damage repair, both as single agents and in combinations. Complex tumor spheroids comprised of malignant cells, endothelial cells and mesenchymal stem cells served as an in vitro model for human solid tumors. This model system incorporates physiologically relevant features and patient-derived or established malignant cell lines with clinically relevant genetic alterations from many tumor types. Twenty-six patient-derived or established malignant cell lines were evaluated representing sarcoma, melanoma, small cell lung cancer (SCLC), non-small cell lung cancer (NSCLC), as well as bladder, ovarian and pancreatic cancers. The concentration ranges selected for each drug and investigational agent were based upon clinically achievable concentrations if the clinical Cmax of the agent was known.
Compounds. The drugs and compounds olaparib (NSC753686), talazoparib (NSC767125), berzosertib (NSC777718), elimusertib (NSC800525), nedisertib (NSC802822), VX-984 (NSC792969), AZD-1390 (NSC803789), temozolomide (NSC362856), topotecan (NSC609699), trabectedin (NSC813783), staurosporine (NSC755774), and gemcitabine (NSC613327) were obtained from the National Cancer Institute (NCI) Developmental Therapeutics Program Chemical Repository. The FDA-approved anticancer drug set is available from the Developmental Therapeutics Program at https://dtp.cancer.gov/organization/dscb/obtaining/available_plates.htm. […] The stock solutions were prepared in dimethyl sulfoxide (DMSO, Sigma-Aldrich, St. Louis, MO, cat. D2650) at 400-fold the tested concentration and stored at -70 degrees C. Prior to their use, the stock solutions were diluted in fresh medium and the final DMSO concentration in the assay was 0.25% (v/v). All drugs and investigational agents were tested over a range starting from a high concentration at or near the clinical Cmax and decreasing in half-log increments. If the clinical Cmax for an agent had not been determined, the highest concentration tested was 10 microM.
Cell Lines. The patient-derived cancer cell (PDC) lines: 156681-154-R-J1-PDC, 283228-195-R-J1-PDC, 287954-098-R-J1-PDC, 292921-168-R-J2-PDC, 349418-098-R-PDC, 425362-245-T-J1-PDC, 556581-035-R-J1-PDC, and BL0293-F563-PDC were received from the NCI Patient-Derived Models Repository (PDMR, https://pdmr.cancer.gov). The established cell lines HS-SY-2 (RRID:CVCL_8719), MPNST, and SYO-1 (RRID:CVCL_7146) were obtained from the Sloan Kettering Institute. The alveolar soft parts sarcoma cell line ASPS-1 (RRID:CVCL_S738) was established at the NCI and grown from internal seed stocks. The following established cell lines were purchased from the American Type Culture Collection (ATCC, Manassas, VA): G-401 (ATCC, cat. CRL-1441, RRID:CVCL_0270), SW982 (ATCC, cat. HTB-93, RRID:CVCL_1734), VA-ES-BJ (ATCC, cat. CRL-2138, RRID:CVCL_1785), NCI-H719 (ATCC, cat. CRL-5837, RRID:CVCL_1582), NCI-H196 (ATCC, cat. CRL-5823, RRID:CVCL_1509), NCI-H841 (ATCC, cat. CRL-5845, RRID:CVCL_1595), NCI-H1618 (ATCC, cat. CRL-5879, RRID:CVCL_1480), NCI-H1876 (ATCC, cat. CRL-5902, RRID:CVCL_1503), DMS 114 (ATCC, cat. CRL-2066; RRID:CVCL_1174), NCI-H211 (ATCC, cat. CRL-5824; RRID:CVCL_1529), and SW 1271 (ATCC, cat. CRL-2177, RRID:CVCL_1716). The small cell lung cancer cell line COR-L88 was purchased from Sigma-Aldrich (cat. 92031917-1VL, RRID:CVCL_1141). The non-small cell lung cancer cell lines NCI-H226 (RRID:CVCL_1544) and NCI-H322M (RRID:CVCL_1557) were established at the NCI and grown from internal seed stocks. Pooled donor human umbilical vein endothelial cells (HUVEC, Lonza, cat. CC-2519) and human mesenchymal stem cells (hMSC, Lonza, cat. PT-2501) were purchased from Lonza (Walkersville, MD).
Cell Culture. All cells were maintained in an incubator at 37 degrees C and 5% CO2 with 95% humidity. […]

[1] = compound alone, run of 10/17/2019
[2] = compound alone, run of 10/25/2019

SMILES	viability, T/C (compound 0.0316 µM)	viability, T/C (compound 0.1 µM)	viability, T/C (compound 0.316 µM)	viability, T/C (compound 1 µM)	viability, T/C (compound 3.16 µM)	viability, T/C (compound 10 µM)	IC50 (curve of compound)	viability, T/C (compound 0.03 µM)	viability, T/C (compound 0.0949 µM)	viability, T/C (compound 0.3 µM)	viability, T/C (compound 0.949 µM)	viability, T/C (compound 3 µM)	further results
CC(C)n1c(=O)n(C)c2cnc3cc(F)c(-c4ccc(OCCCN5CCCCC5)nc4)cc3c21	106% and 99.8% and 105%	104% and 103% and 107%	101% and 97.2% and 106%	97.8% and 102% and 93.4%	70.1% and 88% and 73.8%	22.5% and 34.4% and 22.6%	5.15 µM and 7.21 µM and 5.37 µM						
CC1COCCN1c1cc(-c2ccnn2C)c2ccnc(-c3ccn[nH]3)c2n1 (configuration not stated)	53.3% and 52% and 78.1%	33.3% and 43.1% and 47.9%	19% and 25.5% and 22.5%	12% and 12.8% and 12.6%	9.85% and 10.8% and 9.54%	10.2% and 11.9% and 8.81%	0.0382 µM and 0.0407 µM and 0.0922 µM						
CC[C@@]1(O)C(=O)OCc2c1cc1n(c2=O)Cc2cc3c(CN(C)C)c(O)ccc3nc2-1								33.1% [middle of 10 runs]	16.2% [middle of 10 runs]	10.4% [middle of 10 runs]			viability, T/C (compound 0.003 µM): 107% [middle of 10 runs]; IC50 [1]: 22.3 nM [middle of 5 runs]; IC50 [2]: 20.2 nM [middle of 5 runs]
CNCc1ccc(-c2cc(-c3nc(-c4ccc(S(=O)(=O)C(C)C)cc4)cnc3N)on2)cc1							0.216 µM and 0.176 µM and 0.184 µM	96.8% and 102% and 94%	88.2% and 77.7% and 80.8%	34.7% and 25.9% and 27.3%	3.27% and 5.9% and 2.77%	0.32% and 0.23% and 0.26%	viability, T/C (compound 0.00949 µM): 93% and 107% and 91.3%
COc1cc(C)[nH]c(=O)c1CN1CCc2c(Cl)cc(C(OC)C3COC3)c(Cl)c2C1=O (configuration not stated)	99.2% and 104% and 106%	92.3% and 96.3% and 96.5%	84.5% and 87.3% and 86.1%	78% and 79.3% and 78.8%	72.8% and 77.8% and 73.3%	72.2% and 72.6% and 72.4%	> 10 µM						
COc1cc2c(cc1O)CCNC21CSC2c3c(OC(C)=O)c(C)c4c(c3C(COC1=O)N1C(O)C3Cc5cc(C)c(OC)c(O)c5C(C21)N3C)OCO4 (configuration not stated)													viability, T/C (compound 30 pM): 102% [middle of 10 runs]; viability, T/C (compound 94.9 pM): 102% [middle of 10 runs]; viability, T/C (compound 0.0003 µM): 41.4% [middle of 10 runs]; viability, T/C (compound 0.000949 µM): 4.04% [middle of 10 runs]; viability, T/C (compound 0.003 µM): 0.21% [middle of 7 runs]; IC50 [2]: 0.253 nM [middle of 10 runs]
COc1ccc([C@@H](O)c2cc(-c3ncnc4cc(N5CCOCC5)ccc34)c(F)cc2Cl)nn1	98.5% and 111% and 96.3%	100% and 104% and 105%	98% and 103% and 108%	98.8% and 121% and 100%	81.9% and 95.8% and 92.8%	40.5% and 46.1% and 35.6%	7.8 µM and 9.15 µM and 7.49 µM						
Cc1cc(C)c(CNC(=O)c2cc(-c3ccc(CN4CCOCC4)cc3)cc3c2cnn3C2CCCC2)c(=O)[nH]1	99.2% and 94.7% and 96.4%	104% and 96.8% and 102%	103% and 113% and 108%	116% and 115% (2×)	106% and 110% and 103%	62.3% and 78% and 72.8%	> 10 µM						
Cc1sc2c(c1C)C(c1ccc(Cl)cc1)=NC(CC(=O)Nc1ccc(O)cc1)c1nnc(C)n1-2 (configuration not stated)							0.164 µM and 0.116 µM	111% and 108% and 107%	69.5% and 72.7% and 55.8%	27.6% and 24.4% and 18.9%	11.3% and 9.42% and 7.59%	7.11% and 4.64% and 4.8%	viability, T/C (compound 0.00949 µM): 99% and 105% and 95%
Cn1ncnc1[C@H]1c2n[nH]c(=O)c3cc(F)cc(c23)N[C@@H]1c1ccc(F)cc1							0.611 µM and 0.901 µM and 0.514 µM	94.9% and 113% and 95.8%	91.3% and 103% and 87.2%	72.8% and 101% and 65.3%	34.5% and 47.5% and 32.3%	9.35% and 15.3% and 10.1%	viability, T/C (compound 0.00949 µM): 117% and 110% and 92%
Cn1nnc2c(C(N)=O)ncn2c1=O				101% [middle of 10 runs]	101% [middle of 9 runs]	106% [middle of 10 runs]							viability, T/C (compound 31.6 µM): 106% [middle of 10 runs]; IC50 [1]: > 100 µM
O=C(c1cc(Cc2n[nH]c(=O)c3ccccc23)ccc1F)N1CCN(C(=O)C2CC2)CC1							27.7 µM and 11.1 µM and 12 µM		105% and 104% and 97.3%	104% (2×) and 102%	107% and 98.7% and 106%	109% and 107% and 102%	viability, T/C (compound 9.49 µM): 70.7% and 53.2% and 55.8%; viability, T/C (compound 30 µM): 48.5% and 29.6% and 26.8%
[2H]c1nc(C)nc([2H])c1-c1cc(NC[C@@H](C)c2cccc3c(C(=O)NC)ccnc23)ncn1	103% and 104% (2×)	109% and 103% and 111%	105% and 99.8% and 113%	105% and 103% and 96.1%	101% and 98% and 103%	96.1% and 93.5% and 87.6%	> 10 µM						
